# Reference: PubChem BioAssay (NCI)
#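 Dose response: 5 concentrations. Exposure: 48 h. Format: 96-well plates. Endpoint: linear interpolation; highest concentration if not reached. GI50 is the concentration that inhibits growth by half. At the TGI there is no net growth.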
# Tests used:
# Test in all cases: NCI anticancer screen, dose series, 48 h
# [1] = system: EKVX NSCLC
# [2] = system: LOX IMVI melanoma
# [3] = system: NCI/ADR-RES ovarian
# [4] = system: NCI-H226 lung
# [5] = system: SF-268 CNS
# [6] = system: BT-549 breast
# [7] = system: A549 NSCLC
# [8] = system: M14 melanoma
# [9] = system: MCF7 breast
# [10] = system: UO-31 renal
# [11] = system: RXF 393 renal
# [12] = system: HL-60(TB) leukemia
# [13] = system: SN12C renal
# [14] = system: SNB-19 CNS
# [15] = system: NCI-H522 lung
# [16] = system: SW-620 colon
# [17] = system: U251 CNS
# [18] = system: SF-539 CNS
# [19] = system: OVCAR-5 ovarian
# [20] = system: MDA-MB-231 breast
# [21] = system: K-562 leukemia
# [22] = system: T-47D breast
# [23] = system: MALME-3M melanoma
# [24] = system: NCI-H23 lung
# [25] = system: HS 578T breast
# [26] = system: MDA-MB-435
# [27] = system: 786-0 renal
# [28] = system: MOLT-4 leukemia
# [29] = system: A498 renal
# [30] = system: NCI-H460 lung
# [31] = system: UACC-62 melanoma
# [32] = system: DU-145 prostate
# [33] = system: HCT-116 colon
# [34] = system: OVCAR-8 ovarian
# [35] = system: HCT-15 colon
# [36] = system: OVCAR-4 ovarian
# [37] = system: SF-295 CNS
# [38] = system: COLO 205 colon
# [39] = system: HOP-62 NSCLC
# [40] = system: SK-MEL-28 melanoma
# [41] = system: SK-OV-3 ovarian
# [42] = system: SNB-75 CNS
# [43] = system: HOP-92 NSCLC
# [44] = system: SK-MEL-5 melanoma
# [45] = system: IGROV1 ovarian
# [46] = system: KM12 colon
# [47] = system: UACC-257 melanoma
# [48] = system: OVCAR-3 ovarian
# [49] = system: HCC-2998 colon
# [50] = system: RPMI-8226 leukemia
# [51] = system: PC-3 prostate
# [52] = system: ACHN renal
# [53] = system: SK-MEL-2 melanoma
# [54] = system: CCRF-CEM leukemia
# [55] = system: HT29 colon
# [56] = system: CAKI-1 renal
# [57] = system: SR leukemia
smiles,measurement,setting,value
O=C(Nc1nc(-c2ccc(Cl)cc2)nc2c1sc(=S)n2-c1ccccc1)C(F)(F)F,GI50,[1],3.83 µM
same,TGI,[1],31.8 µM
same,GI50,[2],2.43 µM
same,TGI,[2],6.46 µM
same,GI50,[3],3.58 µM
same,TGI,[3],19.3 µM
same,GI50,[4],2.89 µM
same,TGI,[4],9.61 µM
same,GI50,[5],4.45 µM
same,TGI,[5],24.3 µM
same,GI50,[6],6.37 µM
same,TGI,[6],38.2 µM
same,GI50,[7],3.88 µM
same,TGI,[7],18 µM
same,GI50,[8],7.61 µM
same,TGI,[8],> 100 µM
same,GI50,[9],10.2 µM
same,TGI,[9],> 100 µM
same,GI50,[10],1.87 µM
same,TGI,[10],4.04 µM
same,GI50,[11],2.36 µM
same,TGI,[11],5.01 µM
same,GI50,[12],> 100 µM
same,TGI,[12],> 100 µM
same,GI50,[13],11.3 µM
same,TGI,[13],45.3 µM
same,GI50,[14],7.18 µM
same,TGI,[14],37.5 µM
same,GI50,[15],4.72 µM
same,TGI,[15],39.8 µM
same,GI50,[16],4.34 µM
same,TGI,[16],26.3 µM
same,GI50,[17],3.23 µM
same,TGI,[17],9.87 µM
same,GI50,[18],1.98 µM
same,TGI,[18],3.88 µM
same,GI50,[19],6.23 µM
same,TGI,[19],26.6 µM
same,GI50,[20],3.64 µM
same,TGI,[20],12.5 µM
same,GI50,[21],6.37 µM
same,TGI,[21],> 100 µM
same,GI50,[22],2.05 µM
same,TGI,[22],5.05 µM
same,GI50,[23],2.89 µM
same,TGI,[23],7.08 µM
same,GI50,[24],5.45 µM
same,TGI,[24],26.8 µM
same,GI50,[25],3.37 µM
same,TGI,[25],9.7 µM
same,GI50,[26],5.4 µM
same,TGI,[26],> 100 µM
same,GI50,[27],1.67 µM
same,TGI,[27],3.27 µM
same,GI50,[28],> 100 µM
same,TGI,[28],> 100 µM
same,GI50,[29],1.77 µM
same,TGI,[29],7.8 µM
same,GI50,[30],2.72 µM
same,TGI,[30],7.26 µM
same,GI50,[31],3.55 µM
same,TGI,[31],15 µM
same,GI50,[32],4.32 µM
same,TGI,[32],25.3 µM
same,GI50,[33],2.63 µM
same,TGI,[33],8.04 µM
same,GI50,[34],4.21 µM
same,TGI,[34],21.1 µM
same,GI50,[35],6.46 µM
same,TGI,[35],> 100 µM
same,GI50,[36],1.95 µM
same,TGI,[36],4.19 µM
same,GI50,[37],1.71 µM
same,TGI,[37],4.01 µM
same,GI50,[38],3.54 µM
same,TGI,[38],32.6 µM
same,GI50,[39],2.83 µM
same,TGI,[39],7.98 µM
same,GI50,[40],6.01 µM
same,TGI,[40],> 100 µM
same,GI50,[41],2.71 µM
same,TGI,[41],8.1 µM
same,GI50,[42],1.68 µM
same,TGI,[42],3.49 µM
same,GI50,[43],2.35 µM
same,TGI,[43],6.08 µM
same,GI50,[44],8.23 µM
same,TGI,[44],32.3 µM
same,GI50,[45],3.9 µM
same,TGI,[45],14.3 µM
same,GI50,[46],4.89 µM
same,TGI,[46],> 100 µM
same,GI50,[47],10.7 µM
same,TGI,[47],60 µM
same,GI50,[48],2.81 µM
same,TGI,[48],6.97 µM
same,GI50,[49],10.3 µM
same,TGI,[49],> 100 µM
same,GI50,[50],8.37 µM
same,TGI,[50],> 100 µM
same,GI50,[51],8.95 µM
same,TGI,[51],71.4 µM
same,GI50,[52],1.81 µM
same,TGI,[52],3.56 µM
same,GI50,[53],5.8 µM
same,TGI,[53],22.7 µM
same,GI50,[54],> 100 µM
same,TGI,[54],> 100 µM
same,GI50,[55],3.73 µM
same,TGI,[55],> 100 µM
same,GI50,[56],4 µM
same,TGI,[56],16 µM
same,GI50,[57],4.76 µM
same,TGI,[57],20.1 µM
